Measured values reported in PMC9574867, “Discovery and Characterization of Synthesized and FDA-Approved Inhibitors of Clostridial and Bacillary Collagenases” (Journal of Medicinal Chemistry, 2022).
“Also recorded” adds a separate entry of the source.

Legend:
[1] = system: NHDF cells infected with B. cereus; test: NHDF infection model, cell morphology/attachment and fibrillar collagen (picrosirius red); assay type: cell-based, human; settings: B. cereus infection, 5 h
ColQ1-CU [2] = molecular target: T1, ColQ1-CU (Bacillus cereus, UniProt B9J3S4); test: biochemical; set-up: species or system B. cereus strain Q1
ColQ1-FL = ColQ1-FL (Bacillus cereus, UniProt B9J3S4); assay type: biochemical; settings: 12.5–1.5 μM tested, SDS-PAGE
[3] = system: B. cereus collagenases released in the NHDF infection model; assay type: cell-based, B. cereus AH187
ColA-CU [4] = molecular target: T2, ColA-CU (Bacillus cereus, UniProt Q81BJ6); test: biochemical; assay type: biochemical, B. cereus strain ATCC14579
ColH-PD [5] = molecular target: T3, ColH-PD (Hathewaya histolytica, UniProt Q46085); test: biochemical; assay type: biochemical, C. histolyticum
ColA-CU [6] = molecular target: T2, ColA-CU; assay type: biochemical, B. cereus; settings: rapid dilution
ColG-CU [7] = molecular target: T4, ColG-CU (Hathewaya histolytica, UniProt Q9X721); assay type: biochemical, C. histolyticum; settings: rapid dilution
ColQ1-CU [8] = molecular target: T1, ColQ1-CU; assay type: biochemical, B. cereus; settings: rapid dilution
ColG-CU [9] = molecular target: T4, ColG-CU; test: biochemical; assay type: biochemical, C. histolyticum
ColH-PD [10] = molecular target: T3, ColH-PD; assay type: biochemical, C. histolyticum

ColQ1-FL, sequence (B9J3S4 94-965 limits assumed): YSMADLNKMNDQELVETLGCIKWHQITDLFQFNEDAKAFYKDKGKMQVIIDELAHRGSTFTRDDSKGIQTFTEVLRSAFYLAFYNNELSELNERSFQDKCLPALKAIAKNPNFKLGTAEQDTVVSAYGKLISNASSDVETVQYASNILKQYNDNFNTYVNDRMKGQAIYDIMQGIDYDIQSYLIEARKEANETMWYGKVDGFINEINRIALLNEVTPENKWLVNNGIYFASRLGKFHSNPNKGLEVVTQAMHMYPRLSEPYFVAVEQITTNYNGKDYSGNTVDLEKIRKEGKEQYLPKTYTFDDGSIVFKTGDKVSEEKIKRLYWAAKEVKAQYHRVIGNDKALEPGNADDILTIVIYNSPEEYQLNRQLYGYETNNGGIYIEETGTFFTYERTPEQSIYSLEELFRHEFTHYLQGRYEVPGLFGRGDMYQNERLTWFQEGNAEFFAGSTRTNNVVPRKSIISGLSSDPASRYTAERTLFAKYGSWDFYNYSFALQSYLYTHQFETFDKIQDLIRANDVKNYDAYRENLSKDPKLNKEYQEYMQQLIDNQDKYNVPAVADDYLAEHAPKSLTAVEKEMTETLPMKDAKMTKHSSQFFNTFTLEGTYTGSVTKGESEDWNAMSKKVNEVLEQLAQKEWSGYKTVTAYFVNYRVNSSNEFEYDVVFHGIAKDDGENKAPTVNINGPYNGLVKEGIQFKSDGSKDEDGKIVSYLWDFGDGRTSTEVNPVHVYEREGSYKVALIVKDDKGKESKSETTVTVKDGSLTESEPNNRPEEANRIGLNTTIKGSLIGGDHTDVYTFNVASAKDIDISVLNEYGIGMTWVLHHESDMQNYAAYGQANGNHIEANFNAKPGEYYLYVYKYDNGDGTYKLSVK
T1 sequence (B9J3S4 94-765 limits assumed): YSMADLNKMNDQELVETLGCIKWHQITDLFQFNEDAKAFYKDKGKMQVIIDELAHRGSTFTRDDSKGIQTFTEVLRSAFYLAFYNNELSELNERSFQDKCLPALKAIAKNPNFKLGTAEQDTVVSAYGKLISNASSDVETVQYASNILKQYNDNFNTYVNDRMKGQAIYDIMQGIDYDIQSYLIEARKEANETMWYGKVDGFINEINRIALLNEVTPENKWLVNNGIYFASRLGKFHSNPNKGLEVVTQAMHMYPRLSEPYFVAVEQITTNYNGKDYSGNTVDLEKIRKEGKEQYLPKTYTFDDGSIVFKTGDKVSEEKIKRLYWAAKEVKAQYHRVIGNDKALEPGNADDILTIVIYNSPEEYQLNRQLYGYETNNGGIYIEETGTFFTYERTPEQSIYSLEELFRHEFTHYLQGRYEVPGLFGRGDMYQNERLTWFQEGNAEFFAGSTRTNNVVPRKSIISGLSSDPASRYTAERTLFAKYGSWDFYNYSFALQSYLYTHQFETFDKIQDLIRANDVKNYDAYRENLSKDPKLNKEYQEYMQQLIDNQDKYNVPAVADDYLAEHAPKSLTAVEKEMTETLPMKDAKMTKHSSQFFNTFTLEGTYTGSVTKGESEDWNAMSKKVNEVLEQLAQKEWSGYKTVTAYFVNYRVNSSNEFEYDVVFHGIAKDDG
T2 sequence (Q81BJ6 93-764): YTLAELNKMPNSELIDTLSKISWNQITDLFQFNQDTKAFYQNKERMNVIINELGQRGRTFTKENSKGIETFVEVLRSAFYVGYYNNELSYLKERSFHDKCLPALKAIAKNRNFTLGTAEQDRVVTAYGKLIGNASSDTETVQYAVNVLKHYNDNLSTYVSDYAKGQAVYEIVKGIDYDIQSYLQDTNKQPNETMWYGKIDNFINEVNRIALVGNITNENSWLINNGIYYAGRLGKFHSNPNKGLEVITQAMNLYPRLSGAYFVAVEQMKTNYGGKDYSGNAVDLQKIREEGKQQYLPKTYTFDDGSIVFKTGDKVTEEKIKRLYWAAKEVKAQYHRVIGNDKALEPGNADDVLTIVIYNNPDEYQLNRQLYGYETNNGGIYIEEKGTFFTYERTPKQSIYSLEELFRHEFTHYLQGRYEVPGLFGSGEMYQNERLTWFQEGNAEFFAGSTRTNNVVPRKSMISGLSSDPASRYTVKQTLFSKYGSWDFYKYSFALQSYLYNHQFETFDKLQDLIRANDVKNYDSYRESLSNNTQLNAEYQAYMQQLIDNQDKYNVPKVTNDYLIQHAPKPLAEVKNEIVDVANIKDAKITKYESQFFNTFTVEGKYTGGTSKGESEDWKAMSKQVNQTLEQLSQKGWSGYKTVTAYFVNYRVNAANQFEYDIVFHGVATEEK
T4 sequence (Q9X721 111-786): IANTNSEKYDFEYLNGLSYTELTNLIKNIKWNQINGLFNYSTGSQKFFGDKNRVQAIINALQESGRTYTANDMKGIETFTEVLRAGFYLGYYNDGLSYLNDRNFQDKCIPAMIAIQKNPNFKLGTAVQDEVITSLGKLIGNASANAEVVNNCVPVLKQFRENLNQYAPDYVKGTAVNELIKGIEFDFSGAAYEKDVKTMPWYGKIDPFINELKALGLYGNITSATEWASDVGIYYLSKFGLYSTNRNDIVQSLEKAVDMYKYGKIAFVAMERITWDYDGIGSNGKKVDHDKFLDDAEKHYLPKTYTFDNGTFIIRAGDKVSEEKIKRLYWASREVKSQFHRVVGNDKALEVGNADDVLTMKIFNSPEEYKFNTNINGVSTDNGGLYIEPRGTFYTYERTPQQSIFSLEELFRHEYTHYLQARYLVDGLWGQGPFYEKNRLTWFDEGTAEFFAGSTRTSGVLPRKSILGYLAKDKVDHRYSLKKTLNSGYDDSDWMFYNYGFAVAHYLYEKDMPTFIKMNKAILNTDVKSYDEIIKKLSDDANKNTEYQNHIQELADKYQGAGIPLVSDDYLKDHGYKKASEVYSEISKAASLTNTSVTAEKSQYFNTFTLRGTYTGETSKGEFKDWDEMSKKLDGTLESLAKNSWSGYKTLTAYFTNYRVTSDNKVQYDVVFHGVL
T3 sequence (Q46085 331-721 limits assumed): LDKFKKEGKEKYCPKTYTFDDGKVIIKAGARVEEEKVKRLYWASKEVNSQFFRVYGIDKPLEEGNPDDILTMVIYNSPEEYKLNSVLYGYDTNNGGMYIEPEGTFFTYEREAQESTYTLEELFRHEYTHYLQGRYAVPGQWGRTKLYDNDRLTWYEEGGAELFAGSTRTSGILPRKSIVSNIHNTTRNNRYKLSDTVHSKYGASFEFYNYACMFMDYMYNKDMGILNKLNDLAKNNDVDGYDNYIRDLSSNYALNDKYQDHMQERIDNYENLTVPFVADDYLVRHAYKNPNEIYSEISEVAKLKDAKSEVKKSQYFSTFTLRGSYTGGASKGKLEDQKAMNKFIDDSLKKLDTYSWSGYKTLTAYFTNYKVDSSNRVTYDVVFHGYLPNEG

SMILES	Effect on cell morphology and ECM collagen content of infected NHDF cells [1]	IC50 (ColQ1-CU [2]) [µM]	Protection of Col I chains from cleavage by ColQ1-FL (ColQ1-FL)	Inhibitory effect on gelatinolytic activity of secreted collagenases [3]	Ki (ColA-CU [4]) [µM]	Ki (ColH-PD [5]) [µM]	Reversibility of inhibition, ColA-CU (ColA-CU [6])	Reversibility of inhibition, ColG (ColG-CU [7])	Reversibility of inhibition, ColQ1-CU (ColQ1-CU [8])	Ki (ColG-CU [9]) [µM]	Ki (ColQ1-CU [2]) [µM]	Reversibility of inhibition, ColH (ColH-PD [10])
CC(=O)Nc1ccc(OCc2cn(CCNC(=O)C(CC(C)C)C(=O)NO)nn2)cc1 (centres unmarked) [Compound 29, N-[2-[4-[(4-Acetamidophenoxy)methyl]triazol-1-yl]ethyl]-2-(hydroxycarbamoyl)-4-methyl-pentanamide]	neither able to rescue cell morphology nor able to maintain the collagen content of the ECM	35 ± 3	severe degradation was visible at all tested concentrations	no inhibitory effect on the collagenase in the zymography at all tested concentrations; also recorded: no inhibition of the collagenase in the gelatin zymography was detected								
CC(C)CC(C(=O)NO)C(=O)NCCn1cc(COc2ccccc2)nn1 (centres unmarked) [Compound 31, 2-(Hydroxycarbamoyl)-4-methyl-N-[2-[4-(phenoxymethyl)triazol-1-yl]ethyl]pentanamide]	neither able to rescue cell morphology nor able to maintain the collagen content of the ECM	12 ± 1	severe degradation was visible at all tested concentrations	no inhibitory effect on the collagenase in the zymography at all tested concentrations; also recorded: no inhibition of the collagenase in the gelatin zymography was detected								
CC(C)CC(C(=O)NO)C(=O)NCCn1cc(CSc2ccccc2)nn1 (centres unmarked) [Compound 32, 2-(Hydroxycarbamoyl)-4-methyl-N-[2-[4-(phenylsulfanylmethyl)triazol-1 yl]ethyl]pentanamide]	neither able to rescue cell morphology nor able to maintain the collagen content of the ECM	10.1 ± 0.9	severe degradation was visible at all tested concentrations	no inhibitory effect on the collagenase in the zymography at all tested concentrations; also recorded: no inhibition of the collagenase in the gelatin zymography was detected								
CC(=O)Nc1ccccc1OCc1cn(CCNC(=O)C(Cc2ccccc2)C(=O)NO)nn1 (centres unmarked) [Compound 33, N-[2-[4-[(2-Acetamidophenoxy)methyl]triazol-1-yl]ethyl]-2-benzyl-3-(hydroxyamino)-3-oxo-propanamide]	neither able to rescue cell morphology nor able to maintain the collagen content of the ECM	1.6 ± 0.1		no inhibitory effect on the collagenase in the zymography at all tested concentrations; also recorded: no inhibition of the collagenase in the gelatin zymography was detected	4.7 ± 0.3	1.7 ± 0.2	rapidly reversible inhibitors	rapidly reversible inhibitors	rapidly reversible inhibitors	18.4 ± 0.6	0.82 ± 0.07	rapidly reversible inhibitors
